Data: patent US4508728A, “Method of treating inflammatory diseases” (priority 1984, dated 1985)

Tests used:
[1] = test system: granulation; test: Granulation formation, formalin filter paper method (FFP method), with quantitative analysis of hydroxyprolin; assay type: in vivo, rat (Wister strain male); conditions: for Hydroxyproline / Wet weight of granulation: once daily for 7 days
Excerpt: The promotive action of granulation by homocarnosine was examined by a routine formalin filter paper method (FFP method) and the quantitative analysis of hydroxyprolin. For experimental purposes, use was made of groups of 5 or 6 six-week old Wister strain male rats weighing around 170 g each. The hair was sheared from the backs of these animals using clippers and under ether anesthesia they were given an incision of about 1 cm by a shap surgical knife along the dorsal median line. A piece of filter paper (No. 26 product by Toyo Filter Paper Co.) was cut into circles having a diameter of 6.7 mm which were immersed in a 7% formalin solution. In each rat, these filter paper circles, 4 altogether, were inserted underneath the skin of the right and left scapular areas and under the skin about 4 cm to the rear or these areas, two circles on the right side and two on the left side. A dose of penicillin was given to prevent the possibility of infective suppuration subcutaneously and the incised portion was sutured by use of clips. On the second day after the insertion of formalin immersed filter paper, the sutures were removed and on the seventh day they were put to death under ether anesthesia by cutting the carotid vessels, from which the mass of granulations that had been formed by formalin immersed filter paper was taken out. After the entire granular mass containing filter paper was measured for wet weight, the mass from the left scapular area was used for the quantitative analysis of hydroxyprolin. Homocarnosine was prepared in an isotonic solution and was injected into the animals either subcutaneously or peritoneally once daily for seven days after the suture. When an oral administration was needed, it was made in a 15% solution and was poured into the esophagus. The mass of granulations freed from the filter paper was defatted by ethanol-ether and after being rendered in the gelatin state by an autoclave it was added with concentrated hydrochloric acid and was hydrolyzed overnight at a temperature of 105° to 110° C. After it was thickened and dried at 105° to 110° C., the product was added with 0.02N hydrochloric acid and its hydroxyprolin was quantified by a Hitachi-835 amino acid automatic analyzer in an effort to estimate the amount of collagen that had been synthesized.

[2] = test system: surgical wounds; test: Wound healing: tensile strength of sutured surgical incision on the 7th day; assay type: in vivo, rat (Wister strain male); conditions: for Tensile Strength, % of control / Tensile Strength, X ± S.E.: daily for 7 days
Experimental: The healing effect of surgical wounds by homocarnosine was assessed in the following manner. Six-week old Wister strain male rats weighing around 170 g each were used. The rats which had their backs denuded over an extensive area by clippers were given an incision of about 4 cm by a sharp surgical knife along the dorsal medial line under ether anesthesia. A dosage of penicillin was administered to prevent the possibility of infective suppuration and the incision was uniformly sutured with silk threads at 3 spots. Homocarnosine was made into isotonic solution which was subcutaneously injected every day into 8 places on both sides of the incision equally for 7 days. Physiologic saline was employed as a control. The threads were removed 4 days after the formation of the incisions and the experimental animals were put to death on the 7th day under ether anesthesia, and 3 pieces of dosal skin, 3 cm in length and 1 cm in width each, were surgically cut off in such manner that the incision line lay at the middle of the piece. One side of each piece of skin was fixed and the other was pulled and the force required to separate the skin at the point the incision had been made was taken to indicate the tensile strength.

[3] = test system: dental extraction wounds; test: Clinical Case No. 1: dental extraction wound; assay type: in vivo, human; set-up: key to Cure (Wound Healing): ++: Found to be highly effective compared with ordinary therapy.; +: Effective; -: Noneffective; key to Postoperative pains, 2 hours / Postoperative pains, 12 hours / Postoperative pains, 24 hours: -: No subjective pains.; ±: Though subjective pains were present, no analgesic was used.; +: Subjective pains and an analgesic was administered
Experimental: 0.5% homocarnosine injection solution was administered to the wound brought about by a dental extraction.

[4] = test system: aftha stomatitis; test: Clinical Case No. 2: aftha stomatitis; assay type: in vivo, human; set-up: key: The patients in whom the pain disappeared immediately after injection of homocarnosine solution with no subsequent pain complaints on the following day, and the ulcerated area had shrunk postoperatively were assessed as favorable ++; conditions: 0.1 ml of 0.5% solution injected
Experimental: Patients who complained of the aftha stomatitis were injected with 0.5% homocarnosine solution.
The patients in whom the pain disappeared immediately after injection of homocarnosine solution with no subsequent pain complaints on the following day, and the ulcerated area had shrunk postoperatively were assessed as favorable ++.

[5] = test system: angulus infectiosus; test: Clinical Case No. 3: angulus infectiosus; assay type: in vivo, human; set-up: key: those cases in which the wounds became closed on the day following homocarnosine administration were judged as ++; those in which three applications were further needed before favorable results were obvious were judged as +
Excerpt: 0.5% homocarnosine in the form of a paste was applied in cases of angulus infectiosus in a dosage of 0.8 g on the basis of three times daily.
In assessing the effect of treatment, those cases in which the wounds became closed on the day following homocarnosine administration were judged as ++ and those in which three applications were further needed before favorable results were obvious were judged as +.

[6] = test system: herpes zoster; test: Clinical Case No. 4: herpes zoster; assay type: in vivo, human; conditions: person
Excerpt: 5% homocarnosine paste was applied to a case of herpes zoster.
Region: The herpes zoster extended from the lower part of right breast to the side of body.
Course of the complaint: The patient came for consultation after three days of subjective complaint. 1 g of 5% homocarnosine paste was applied to the diseased region.

[7] = test system: cervical erosion; test: Clinical Case No. 5: cervical erosion; assay type: in vivo, human; conditions: suppository 20 mg
Experimental: 1.7 g suppository, one suppository containing 20 mg homocarnosine, was used for the following patients suffering from cervical erosion.

[8] = test system: decubital ulcer; test: Clinical Case No. 6: decubital ulcer; assay type: in vivo, human; set-up: key: -: Non effective; +: Effective; ++: Remarkably effective
Excerpt: 1% homocarnosine ointment was applied to the cases of decubital ulcer as follows.

[9] = test system: hemorrohoid; test: Clinical Case No. 7: hemorrhoid; assay type: in vivo, human; set-up: key: -: Non effective; +: Effective; ++: Remarkably effective; conditions: suppository 10 mg
Experimental: 1.7 g suppository, one suppository containing 10 mg homocarnosine, was used for the following patients suffering from hemorrohoid.
*Conjointly administered with 0.5% homocarnosine ointment.

[10] = test system: inflammation of respiratory tract; test: Clinical Case No. 8: inflammation of respiratory tract, nebulizer; assay type: in vivo, human; set-up: key: -: Non effective; +: Effective; ++: Remarkably effective; conditions: 0.1% solution
Excerpt: 0.1% homocarnosine solution in physiological saline was used for the following patients suffering from inflammation of respiratory tract with the aid of nebulizer.

[11] = test system: dermatitis; test: Clinical Case No. 9: various types of dermatitis; assay type: in vivo, human; set-up: key to Effect: -: Non effective; +: Effective; ++: Remarkably effective
Excerpt: 0.5% homocarnosine in the form of an ointment was applied to the following patients suffering from various types of dermatitis.

[12] = Solubility in water; assay type: physicochemical
[13] = case 1, horizontal impaction, 0.3 ml of 0.5% injection solution
[14] = case 2, alveolar osteitis, 0.3 ml of 0.5% injection solution
[15] = case 3, traumatic bone fracture, 0.1 ml of 0.5% injection solution
[16] = case 4, dental root cyst, 0.2 ml of 0.5% injection solution
[17] = case 5, alveolar osteitis, 0.3 ml of 0.5% injection solution

NCCCC(=O)N[C@@H](Cc1cnc[nH]1)C(=O)O [Homocarnosine, L-histidinyl-γ-aminobutylic acid]
Hydroxyproline ([1]; 3 mg/kg i.p., 7 granuloma): 97.8 ± 10.1 % of control
Wet weight of granulation ([1]; 3 mg/kg i.p., 18 granuloma): 96.1 ± 5.6 % of control
Hydroxyproline ([1]; 10 mg/kg i.p., 9 granuloma): 127.6 ± 14.5 % of control
Wet weight of granulation ([1]; 10 mg/kg i.p., 20 granuloma, p < 0.01): 121.3 ± 5.7 % of control
Hydroxyproline ([1]; 30 mg/kg i.p., 8 granuloma): 123.9 ± 8.0 % of control
Wet weight of granulation ([1]; 30 mg/kg i.p., 19 granuloma, p < 0.025): 126.6 ± 7.3 % of control
Wet weight of granulation ([1]; 50 mg/kg i.p., 20 granuloma): 133.7 ± 7.2 % of control
Wet weight of granulation ([1]; 70 mg/kg i.p., 24 granuloma): 131.7 ± 7.8 % of control
Wet weight of granulation ([1]; 90 mg/kg i.p., 20 granuloma): 135.6 ± 7.2 % of control
Granulation formation (in words) ([1]; 10, 30, 50, 70 and 90 mg/kg (i.p.)): effective in promoting granulation formation
Hydroxyprolin amount (in words) ([1]; relative to wet weight of granulations): increased in proportion to an increase in the wet weight of granulations
Tensile Strength, % of control ([2]; 0.06 mg/rat i.d., 18 skins): 96.1 % of control
Tensile Strength, X ± S.E. ([2]; 0.06 mg/rat i.d., 18 skins): 436.8 ± 27.6
Tensile Strength, % of control ([2]; 0.6 mg/rat i.d., 15 skins): 108.6 % of control
Tensile Strength, X ± S.E. ([2]; 0.6 mg/rat i.d., 15 skins): 493.3 ± 27.5
Tensile Strength, % of control ([2]; 6.0 mg/rat i.d., 18 skins): 118.8 % of control
Tensile Strength, X ± S.E. ([2]; 6.0 mg/rat i.d., 18 skins, p < 0.01): 539.6 ± 41.5
Effect on surgical wounds, tensile strength on the 7th day (in words) ([2]; subcutaneous, 0.6 and 6.0 mg/rat): efficacy is indicated by the tensile strength of wounds on the 7th day
Cure (Wound Healing) [3, 13]: ++
Postoperative pains, 2 hours [3, 13]: -
Postoperative pains, 12 hours [3, 13]: ±
Postoperative pains, 24 hours [3, 13]: -
Cure (Wound Healing) [3, 14]: ++
Postoperative pains, 2 hours [3, 14]: -
Postoperative pains, 12 hours [3, 14]: -
Postoperative pains, 24 hours [3, 14]: -
Cure (Wound Healing) [3, 15]: ++
Postoperative pains, 2 hours [3, 15]: -
Postoperative pains, 12 hours [3, 15]: -
Postoperative pains, 24 hours [3, 15]: -
Cure (Wound Healing) [3, 16]: ++
Postoperative pains, 2 hours [3, 16]: -
Postoperative pains, 12 hours [3, 16]: +
Postoperative pains, 24 hours [3, 16]: -
Cure (Wound Healing) [3, 17]: ++
Postoperative pains, 2 hours [3, 17]: -
Postoperative pains, 12 hours [3, 17]: -
Postoperative pains, 24 hours [3, 17]: -
Effect ([4]; case 1, isolative aphtha): ++
Effect ([4]; case 2, tip of the tongue, person): ++
Effect ([4]; case 3, lower surface of the tongue, person): ++
Effect ([5]; person five, right, 0.5% paste 0.8 g × 3): ++
Effect ([5]; person four, right and left, 0.5% paste 0.8 g × 6): +
Effect ([5]; person one, right, 0.5% paste 0.8 g × 3): ++
Effect ([5]; person three, right, 0.5% paste 0.8 g × 3): ++
Effect ([5]; person two, right and left, 0.5% paste 0.8 g × 6): +
Effect ([5]; person, left, 0.5% paste 0.8 g × 3): ++
Relapse ([6]; 1 g of 5% paste): no relapse of the symptom
Pains ([6]; 1 g of 5% paste, in about one hour): the pains disappeared completely
Cysts ([6]; 5% paste, 1 g five times daily): discolored and dry
Herpes symptom ([6]; 5% paste, 1 g five times daily): cured after seven days
Effect (in words) ([7]; case 1, C II, 2 tablets in one day): Cured
Effect (in words) ([7]; case 2, C IIIa, 1 tablet daily for 7 days): Cured
Effect (in words) ([7]; case 3, C IIIb, 2 tablets daily for 7 days): Cured
Effect (in words) ([7]; case 4, C IIIc, 2 tablets daily for 14 days): Cured
Effect ([8]; case 1, back (2 × 4 cm), 1% ointment 0.5-1.0 g once daily for 4 days): ++
Effect ([8]; case 2, nates (2 × 3 cm), 1% ointment 0.5-1.0 g once daily for 8 days): ++
Effect ([9]; case 1, ractal bleeding, 1 tablet daily for 4 days, conjointly with 0.5% homocarnosine ointment): ++
Effect ([9]; case 2, inner hemorrhoids, 1 tablet daily for 14 days): ++
Effect ([10]; case 1, allergic rhinitis, 0.8 ml × 2): ++
Effect ([10]; case 2, inflamed respiratory tract, 1.0 ml × 1): ++
Effect ([10]; case 3, inflamed respiratory tract, 1.0 ml × 3): ++
Effect ([10]; case 4, tonsillitis, 1.0 ml × 3): ++
Effect ([10]; case 5, asthma, 1.0 ml twice daily for 10 days): ++
Effect ([11]; case 1, allergic dermatitis, 0.5% ointment 1.0 g twice daily): ++
Effect ([11]; case 2, geriatric itchiness, 0.5% ointment 0.5 g before sleeping): ++
Partial ulcer recovery (in words) ([11]; case 2, geriatric itchiness, 0.5% ointment 0.5 g, partial, after one application): ulcer recovery was noted
Effect ([11]; case 3, eczema, 0.5% ointment 1.0 g twice daily for 2 days): ++
Effect ([11]; case 4, burn (back of left hand), 0.5% ointment 1.0 g once daily for 4 days): ++
Solubility in water [12]: readily soluble in water
